According to patent US5482967A, “Condensed heterocyclic compounds, their production and use” (Takeda Chemical Industries, Ltd., priority 1992, dated 1996):

What follows are compounds tested against T1, acyl-CoA:cholesterol acyl transferase (ACAT) (Rattus norvegicus, UniProt Q7TQM4) (assay: Inhibitory action against acyl-CoA:cholesterol acyl transferase (ACAT), formation of labeled cholesterol ester, small intestine mucosal microsome fraction). Conditions: 10^-6 M; read-out: ACAT Inhibitory Rate (%).
T1 construct: small intestine mucosal microsome fraction of a 6-week-old male Sprague-Dawley rat; from tissue; host or cells: rat small intestine mucosa, microsome fraction
T1 sequence (Q7TQM4 1-524): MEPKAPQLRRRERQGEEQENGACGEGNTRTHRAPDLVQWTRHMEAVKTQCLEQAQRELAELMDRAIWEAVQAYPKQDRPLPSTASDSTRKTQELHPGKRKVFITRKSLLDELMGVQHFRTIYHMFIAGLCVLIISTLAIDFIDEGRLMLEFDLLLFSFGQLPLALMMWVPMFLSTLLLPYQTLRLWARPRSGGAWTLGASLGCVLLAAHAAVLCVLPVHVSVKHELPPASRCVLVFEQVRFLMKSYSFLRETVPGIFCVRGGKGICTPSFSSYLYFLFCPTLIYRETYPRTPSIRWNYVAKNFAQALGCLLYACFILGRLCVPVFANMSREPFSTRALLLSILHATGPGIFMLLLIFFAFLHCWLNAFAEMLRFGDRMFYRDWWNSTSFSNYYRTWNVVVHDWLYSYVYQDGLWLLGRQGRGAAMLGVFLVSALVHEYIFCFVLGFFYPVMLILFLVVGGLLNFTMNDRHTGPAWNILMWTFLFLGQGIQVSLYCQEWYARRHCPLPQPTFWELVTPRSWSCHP
Assay type: biochemical, male Sprague-Dawley rat
Procedure: An ACAT enzyme preparation was prepared from a small intestine mucosal microsome fraction of a 6-week-old male Sprague-Dawley rat, previously fasted for 20 hours, in accordance with the method described by Heider et al. in the Journal of Lipid Research, Vol. 24, page 1127 (1982).
ACAT activity was determined by measuring the amount of labeled cholesterol ester produced from [1-^14 C]-oleoyl-CoA and endogenous cholesterol, in accordance with the method of Helgerud et al. [Journal of Lipid Research, Vol. 22, page 271 (1981)].
An inhibition at 1 µM of 97.3% was found for `COc1cc2c(cc1OC)N(C)C(=O)C(CC(=O)Nc1c(C(C)C)cccc1C(C)C)C2c1ccccc1` (centres unmarked) [Example 18, N-[2,6-Bis(1-methylethyl)phenyl]-1,2,3,4-tetrahydro-6,7-dimethoxy-1-methyl-2-oxo-4-phenyl-3-quinolineacetamide] in this work.
An inhibition at 1 µM of 97.5% was found for `Cc1cc(C)c(NC(=O)C[C@@H]2C(=O)N(C)c3ccc(Cl)cc3[C@H]2c2ccccc2)c(C)c1` (relative stereo) [Example 31, 3,4-trans-6-Chloro-1,2,3,4-tetrahydro-1-methyl-2-oxo-4-phenyl-N-(2,4,6-trimethylphenyl)-3-quinolineacetamide] in this work.
An inhibition at 1 µM of 95.7% was found for `CC(C)c1cccc(C(C)C)c1NC(=O)Cc1c(-c2ccccc2)c2cc(Cl)ccc2oc1=O` [Example 50, N-[2,6-Bis(1-methylethyl)phenyl]-6-chloro-2-oxo-4-phenyl-2H-1-benzopyran-3-acetamide] in this work.
An inhibition at 1 µM of 98.4% was found for `COc1cc(OC)c(NC(=O)Cc2c(-c3ccccc3)c3cc(C)ccc3oc2=O)c(OC)c1` [Example 54, 6-Methyl-2-oxo-4-phenyl-N-(2,4,6-trimethoxyphenyl)-2H-1-benzopyran-3-acetamide] in this work.
An inhibition at 1 µM of 99.3% was found for `CC(C)c1cccc(C(C)C)c1NC(=O)Cc1cnc2ccc(Cl)cc2c1-c1ccccc1` [Example 57, N-[2,6-Bis(1-methylethyl)phenyl]-6-chloro-4-phenyl-3-quinolineacetamide] in this work.
An inhibition at 1 µM of 98.4% was found for `Cc1cccc(C)c1NC(=O)C[C@@H]1C(=O)N(C)c2ccc(Cl)cc2[C@H]1c1ccccc1` (relative stereo) [Example 29, 3,4-trans-6-Chloro-N-(2,6-dimethylphenyl)-1,2,3,4-tetrahydro-1-methyl-2-oxo-4-phenyl-3-quinolineacetamide] in this work.
An inhibition at 1 µM of 98.9% was found for `CC(C)c1cccc(C(C)C)c1NC(=O)C[C@@H]1C(=O)N(C)c2ccc(Cl)cc2[C@H]1c1ccccc1` (relative stereo) [Example 33, 3,4-trans-N-[2,6-Bis(1-methylethyl)phenyl]-6-chloro-1,2,3,4-tetrahydro-1-methyl-2-oxo-4-phenyl-3-quinolineacetamide] in this work.
An inhibition at 1 µM of 98.1% was found for `COc1cc(OC)c(NC(=O)Cc2c(-c3ccccc3)c3cc(Cl)ccc3oc2=O)c(OC)c1` [Example 51, 6-Chloro-2-oxo-4-phenyl-N-(2,4,6-trimethoxyphenyl)-2H-1-benzopyran-3-acetamide] in this work.
An inhibition at 1 µM of 99.5% was found for `CC(C)c1cccc(C(C)C)c1NC(=O)Cc1c(-c2ccccc2)c2cc(Cl)ccc2n(C)c1=O` [Example 45, N-[2,6-Bis(1-methylethyl)phenyl]-6-chloro-1,2-dihydro-1-methyl-2-oxo-4-phenyl-3-quinolineacetamide] in this work.
An inhibition at 1 µM of 98.8% was found for `CC(C)c1cccc(C(C)C)c1NC(=O)C[C@H]1CN(C)c2ccc(Cl)cc2[C@H]1c1ccccc1` (relative stereo) [Example 36, 3,4-cis-N-[2,6-Bis(1-methylethyl)phenyl]-6-chloro-1,2,3,4-tetrahydro-1-methyl-4-phenyl-3-quinolineacetamide] in this work.
An inhibition at 1 µM of 90.2% was found for `Cc1cc2c(cc1C)N(C)C[C@@H](C(=O)Nc1c(C(C)C)cccc1C(C)C)[C@@H]2c1ccccc1Cl` (relative stereo) [Example 15, 3,4-trans-N-[2,6-Bis(1-methylethyl)phenyl]-4-(2-chlorophenyl)-1,2,3,4-tetrahydro-1,6,7-trimethyl-3-quinolinecarboxamide] in this work.
An inhibition at 1 µM of 90.4% was found for `O=C(Cc1c(-c2ccccc2)c2cc(Cl)ccc2oc1=O)Nc1ccc(F)cc1F` [Example 52, 6-Chloro-N-(2,4-difluorophenyl)-2-oxo-4-phenyl-2H-1-benzopyran-3-acetamide] in this work.
An inhibition at 1 µM of 98.2% was found for `COc1ccccc1-c1c(CC(=O)Nc2c(C(C)C)cccc2C(C)C)c(=O)oc2ccc(Cl)cc12` [Example 92, N-[2,6-Bis(1-methylethyl)phenyl]-6-chloro-4-(2-methoxyphenyl)-2-oxo-2H-1-benzopyran-3-acetamide] in this work.
An inhibition at 1 µM of 99.7% was found for `Cc1ccc2oc(=O)c(CC(=O)Nc3c(C(C)C)cccc3C(C)C)c(-c3ccccc3)c2c1` [Example 53, N-[2,6-Bis(1-methylethyl)phenyl]-6-methyl-2-oxo-4-phenyl-2H-1-benzopyran-3-acetamide] in this work.
An inhibition at 1 µM of 99.3% was found for `CC(C)c1cccc(C(C)C)c1NC(=O)C[C@@H]1C(=O)N(C)c2ccc(Cl)cc2[C@H]1c1ccccc1Cl` (relative stereo) [Example 21, 3,4-trans-N-[2,6-Bis(1-methylethyl)phenyl]-6-chloro-4-(2-chlorophenyl)-1,2,3,4-tetrahydro-1-methyl-2-oxo-3-quinolineacetamide] in this work.
An inhibition at 1 µM of 97.9% was found for `Cc1ccc2oc(=O)c(CC(=O)Nc3ccc(F)cc3F)c(-c3ccccc3)c2c1` [Example 55, N-(2,4-Difluorophenyl)-6-methyl-2-oxo-4-phenyl-2H-1-benzopyran-3-acetamide] in this work.
An inhibition at 1 µM of 96% was found for `CC(C)c1cccc(C(C)C)c1NC(=O)C[C@H]1C(=O)N(C)c2ccc(Cl)cc2[C@H]1c1ccccc1` (relative stereo) [Example 32, 3,4-cis-N-[2,6-Bis(1-methylethyl)phenyl]-6-chloro-1,2,3,4-tetrahydro-1-methyl-2-oxo-4-phenyl-3-quinolineacetamide] in this work.
An inhibition at 1 µM of 99.5% was found for `COc1cc(OC)c(NC(=O)Cc2c(-c3ccccc3C)c3cc(Cl)ccc3oc2=O)c(OC)c1` [Example 85, 6-Chloro-4-(2-methylphenyl)-2-oxo-N-(2,4,6-trimethoxyphenyl)-2H-1-benzopyran-3-acetamide] in this work.
An inhibition at 1 µM of 92.8% was found for `O=C(Cc1oc(=O)c2ccc(Cl)cc2c1-c1ccccc1)Nc1ccc(F)cc1F` [Example 49, 6-Chloro-N-(2,4-difluorophenyl)-1-oxo-4-phenyl-1H-2-benzopyran-3-acetamide] in this work.

Each compound was assayed against substance P receptor (Homo sapiens, UniProt P25103) (assay: Radioligand receptor binding inhibitory assay using receptor from human lymphoblast cells (IM-9), 125I-BHSP). Conditions: IM-9 receptor, 25° C., 30 minutes.
Sequence of substance P receptor (P25103 whole entry): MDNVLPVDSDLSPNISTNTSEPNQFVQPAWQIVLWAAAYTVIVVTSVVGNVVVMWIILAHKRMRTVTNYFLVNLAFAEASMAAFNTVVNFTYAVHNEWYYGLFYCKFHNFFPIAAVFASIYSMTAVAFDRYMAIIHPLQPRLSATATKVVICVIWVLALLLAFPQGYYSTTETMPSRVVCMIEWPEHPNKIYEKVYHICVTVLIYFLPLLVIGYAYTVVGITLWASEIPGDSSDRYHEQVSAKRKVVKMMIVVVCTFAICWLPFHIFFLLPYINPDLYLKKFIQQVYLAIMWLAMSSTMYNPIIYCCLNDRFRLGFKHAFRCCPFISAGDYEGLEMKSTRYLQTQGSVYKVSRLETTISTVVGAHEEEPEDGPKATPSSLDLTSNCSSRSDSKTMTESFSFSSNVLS
Method in brief: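 IM-9 lymphoblast membranes (suspended at 1.5 mg/ml protein) were incubated with 125I-BHSP (0.46 KBq) at 25 °C for 30 min in 50 mM Tris-HCl pH 7.4 with BSA, protease inhibitors and 3 mM MnCl2. Nonspecific binding was defined with 2×10^-6 M substance P. Bound radioactivity was collected on PEI-treated GF/B filters and gamma-counted.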
An IC50 of 1.7 nM was found for `CCn1c(C(=O)N(C)Cc2cc(C(F)(F)F)cc(C(F)(F)F)c2)c(-c2ccccc2)c2ccccc2c1=O` [Example 189, N-[3,5-Bis(trifluoromethyl)benzyl]-1,2-dihydro-2-ethyl-N-methyl-1-oxo-4-phenyl-3-isoquinolinecarboxamide] in this work.
An IC50 of 9.1 nM was found for `CCOC(=O)CCn1c(C(=O)N(C)Cc2cc(C(F)(F)F)cc(C(F)(F)F)c2)c(-c2ccccc2)c2ccccc2c1=O` [Example 180, N-[3,5-Bis(trifluoromethyl)benzyl]-2-(2-ethoxycarbonylethyl)-1,2-dihydro-N-methyl-1-oxo-4-phenyl-3-isoquinolinecarboxamide] in this work.
An IC50 of 59 nM was found for `O=C(NCc1cc(C(F)(F)F)cc(C(F)(F)F)c1)c1oc(=O)c2ccccc2c1-c1ccc(F)cc1` [Example 245, N-[3,5-Bis(trifluoromethyl)benzyl]-4-(4-fluorophenyl)-1-oxo-1H-2-benzopyran-3-carboxamide] in this work.
An IC50 of 19 nM was found for `Cc1ccc(CNC(=O)c2c(-c3ccccc3)c3ccccc3c(=O)n2C)cc1` [Example 170, 1,2-Dihydro-2-methyl-N-(4-methylbenzyl)-1-oxo-4-phenyl-3isoquinolinecarboxamide] in this work.
An IC50 of 5.2 nM was found for `Cc1ccc2c(=O)oc(C(=O)N(C)Cc3cc(C(F)(F)F)cc(C(F)(F)F)c3)c(-c3ccccc3)c2c1` [Example 247] in this work.
An IC50 of 34 nM was found for `CCN(Cc1ccccc1OC)C(=O)c1c(-c2ccccc2C)c2ccccc2c(=O)n1C` [Example 107, N-Ethyl-1,2-dihydro-N-(2-methoxybenzyl)-2-methyl-4-(2-methylphenyl)-1-oxo-3-isoquinolinecarboxamide] in this work.
An IC50 of 30 nM was found for `COc1ccccc1CN(C)C(=O)c1c(-c2ccccc2)c2ccccc2c(=O)n1C` [Example 108, 1,2-Dihydro-N-(2-methoxybenzyl)-N,2-dimethyl-1-oxo-4-phenyl-3-isoquinolinecarboxamide] in this work.
An IC50 of 60 nM was found for `COc1ccccc1-c1c(C(=O)N(C)Cc2cc(C(F)(F)F)cc(C(F)(F)F)c2)c(=O)oc2ccc(Cl)cc12` [Example 251, N-[3,5-Bis(trifluoromethyl)benzyl]-6-chloro-4-(2-methoxyphenyl)-N-methyl-2-oxo-2H-1-benzopyran-3-carboxamide] in this work.
An IC50 of 3.4 nM was found for `CN(Cc1cc(C(F)(F)F)cc(C(F)(F)F)c1)C(=O)c1c(-c2ccccc2)c2cc(Cl)ccc2c(=O)n1C` [Example 174, N-[3,5-Bis(trifluoromethyl)benzyl]-6-chloro-1,2-dihydro-N,2-dimethyl-1-oxo-4-phenyl-3-isoquinolinecarboxamide] in this work.
An IC50 of 17 nM was found for `CN(Cc1cc(C(F)(F)F)cc(C(F)(F)F)c1)C(=O)c1c(-c2ccccc2)c2cc(Cl)ccc2oc1=O` [Example 249, N-[3,5-Bis(trifluoromethyl)benzyl]-6-chloro-N-methyl-2-oxo-4-phenyl-2H-1-benzopyran-3-carboxamide] in this work.
